According to patent EP2769738B1, “Conjugated TLR7 and/or TLR8 and TLR2 polycationic agonists” (Invivogen, priority 2013, dated 2014):

Legend:
human TLR7 = biological target: T1, human TLR7 (Homo sapiens, UniProt Q9NYK1); test: HEK-Blue hTLR7 NF-κB/AP-1-inducible SEAP reporter cell assay; assay type: cell-based; settings: Figure 1; 10 µg/mL to 10 pg/ml, 24 hours, SEAP read as OD at 655 nm
T1 construct: host or cells: HEK293 (ATCC, CRL-1573), HEK-Blue hTLR7
T1 sequence (Q9NYK1 27-1049): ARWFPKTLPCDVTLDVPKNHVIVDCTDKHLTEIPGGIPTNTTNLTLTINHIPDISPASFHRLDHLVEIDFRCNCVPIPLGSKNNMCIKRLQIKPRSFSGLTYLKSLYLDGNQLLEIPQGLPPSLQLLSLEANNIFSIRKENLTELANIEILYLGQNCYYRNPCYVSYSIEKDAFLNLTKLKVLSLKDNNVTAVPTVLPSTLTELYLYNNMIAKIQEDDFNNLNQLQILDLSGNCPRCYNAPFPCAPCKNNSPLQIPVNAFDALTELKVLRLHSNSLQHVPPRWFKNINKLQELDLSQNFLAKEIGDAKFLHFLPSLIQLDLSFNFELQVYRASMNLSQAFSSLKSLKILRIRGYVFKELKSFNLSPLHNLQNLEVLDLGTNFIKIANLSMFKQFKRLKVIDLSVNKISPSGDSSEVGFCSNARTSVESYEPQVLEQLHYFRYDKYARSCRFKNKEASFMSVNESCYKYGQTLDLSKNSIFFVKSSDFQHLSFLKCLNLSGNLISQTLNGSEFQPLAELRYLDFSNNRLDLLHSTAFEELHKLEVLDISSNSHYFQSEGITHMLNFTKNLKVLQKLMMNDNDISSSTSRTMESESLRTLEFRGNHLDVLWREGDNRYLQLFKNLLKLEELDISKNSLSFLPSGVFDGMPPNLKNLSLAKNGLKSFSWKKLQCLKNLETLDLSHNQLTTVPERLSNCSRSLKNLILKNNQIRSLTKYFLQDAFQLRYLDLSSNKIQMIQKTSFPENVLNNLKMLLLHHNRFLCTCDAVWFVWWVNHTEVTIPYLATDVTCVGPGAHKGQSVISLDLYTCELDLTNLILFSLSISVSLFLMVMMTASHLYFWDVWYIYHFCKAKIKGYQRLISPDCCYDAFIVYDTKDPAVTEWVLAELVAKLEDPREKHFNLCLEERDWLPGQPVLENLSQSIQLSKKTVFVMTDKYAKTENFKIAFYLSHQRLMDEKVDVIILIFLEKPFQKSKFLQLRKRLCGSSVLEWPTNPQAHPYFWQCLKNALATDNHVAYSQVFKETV
Description: (§1) Assays for detecting TLR7, TLR8 or TLR2 activity are known in the art and include for example cell-based assays using respectively TLR7, TLR8 or TLR2 reporter cell lines (InvivoGen). The reporter cell lines are engineered HEK293 cells, a human embryonic kidney cell line (ATCC, CRL-1573) that stably express either murine TLR7 (HEK-Blue™ mTLR7) or human TLR7 (HEK-Blue™ hTLR7), human TLR8 (HEK-Blue™ hTLR8) or human TLR2 (HEK- Blue™ hTLR2) with an NF-κB-inducible secreted embryonic alkaline phosphatase (SEAP) as the reporter gene.
(§2) Cell-based assays were carried out using TLR7 and TLR2 reporter cell lines (InvivoGen). The reporter cell lines are engineered HEK293 cells, a human embryonic kidney cell line (ATCC, CRL-1573) that stably express either murine TLR7 (HEK-Blue™ mTLR7) or human TLR7 (HEK-Blue™ hTLR7) or human TLR2 (HEK- Blue™ hTLR2) with an NF-κB-inducible secreted embryonic alkaline phosphatase (SEAP) as the reporter gene. The SEAP reporter gene is under the control of the NF-κB and AP-1-inducible promoter, which, upon treatment with a corresponding TLR ligand and activation of NF-κB and AP-1, induces the production of SEAP. Detection of SEAP is measured following culturing cells in HEK-Blue™ Detection media (InvivoGen). HEK-Blue™ Detection contains a SEAP substrate that when hydrolysed by SEAP produces a colorimetric change allowing for detection of SEAP as the protein is secreted. […] These assays were carried out using RAW-Blue™ Cells (InvivoGen), derived from RAW 264.7 mouse leukemic monocyte macrophage cell line (ATCC, CRL 2278) stably overexpressing a NF-κB /AP-1 inducible SEAP reporter constructs.
(§3) To perform the assay, cells were seeded on 96 well microliter plates at 50,000 or 100,000 cells per well for HEK-Blue™ Cells and RAW-Blue™ Cells respectively, and cultured at 37 °C in the presence of the conjugated compounds The TLR7-TLR2 polyamine molecules were prepared as follows: First, stock solutions of the conjugated compounds of the invention were prepared in ethanol or water to a concentration of 10 mg/ml.
(§4) The working dilutions of the conjugated TLR7-TLR2 polyamine agonists made up in water or PBS were directly added to the reporter cell lines at a final concentration ranging from 10 µg/mL to 10 pg/ml and incubated at 37 °C for 24 hours. After 24 hours of incubation, the effect on reporter gene activity was determined by reading the OD at 655 nm using iMark™ Microplate Reader (BIO-RAD).

human TLR2 = biological target: T2, human TLR2 (Homo sapiens, UniProt O60603); test: HEK-Blue hTLR2 NF-κB/AP-1-inducible SEAP reporter cell assay; assay type: cell-based; settings: Figure 3; 10 µg/mL to 10 pg/ml, 24 hours, SEAP read as OD at 655 nm
T2 construct: host or cells: HEK293 (ATCC, CRL-1573), HEK-Blue hTLR2
Description: as §1, §2, §3, §4

T2 sequence (O60603 21-784): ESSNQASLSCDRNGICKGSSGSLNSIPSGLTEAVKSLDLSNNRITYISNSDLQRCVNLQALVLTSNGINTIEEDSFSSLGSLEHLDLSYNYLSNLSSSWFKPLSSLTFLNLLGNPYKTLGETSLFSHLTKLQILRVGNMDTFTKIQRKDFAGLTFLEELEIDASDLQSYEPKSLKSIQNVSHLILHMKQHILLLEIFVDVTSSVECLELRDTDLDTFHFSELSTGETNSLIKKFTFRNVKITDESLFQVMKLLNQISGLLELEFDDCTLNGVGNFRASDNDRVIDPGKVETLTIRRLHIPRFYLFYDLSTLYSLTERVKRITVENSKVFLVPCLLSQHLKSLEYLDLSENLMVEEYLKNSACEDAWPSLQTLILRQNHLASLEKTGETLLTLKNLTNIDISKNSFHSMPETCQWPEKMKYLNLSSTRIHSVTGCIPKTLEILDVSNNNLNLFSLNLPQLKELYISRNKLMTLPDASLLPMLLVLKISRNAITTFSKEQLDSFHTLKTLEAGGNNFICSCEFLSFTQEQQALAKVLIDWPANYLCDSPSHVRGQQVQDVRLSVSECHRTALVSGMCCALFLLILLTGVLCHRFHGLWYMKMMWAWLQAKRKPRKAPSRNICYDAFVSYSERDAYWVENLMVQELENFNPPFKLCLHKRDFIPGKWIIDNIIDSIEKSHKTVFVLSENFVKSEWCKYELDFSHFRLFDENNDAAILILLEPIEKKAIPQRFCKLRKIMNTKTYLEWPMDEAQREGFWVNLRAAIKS

SMILES | ability to activate hTLR7 (human TLR7) | ability to activate hTLR2 (human TLR2)
CCCCCCCCCCCCCCCC(=O)OCC(CSC[C@H](N)C(=O)N[C@@H](CCCCNC(=O)CNC(=O)c1ccc(Cn2c(O)nc3c(N)nc(NCCCC)nc32)cc1)C(=O)NCCCNCCCCNCCCN)OC(=O)CCCCCCCCCCCCCCC (stereo partly drawn) [CL475, (6R,9S)-6,23-diamino-9-(4-(2-(4-((6-amino-2-(butylamino)-8-hydroxy-9H-purin-9-yl)methyl)benzamido)acetamido)butyl)-7,10-dioxo-4-thia-8,11,15,20-tetraazatrico sane-1,2-diyl dipalmitate] | activate hTLR7 | activate hTLR2
CCCCCCCCCCCCCCCC(=O)OCC(CSC[C@H](N)C(=O)NCCCC[C@H](NC(=O)c1ccc(Cn2c(O)nc3c(N)nc(NCCCC)nc32)cc1)C(=O)NCCCNCCCCNCCCN)OC(=O)CCCCCCCCCCCCCCC (stereo partly drawn) [CL486, (6R,13S)-6,27-diamino-13-(4-((6-amino-2-(butylamino)-8-hydroxy-9H-purin-9-yl)methyl)benzamido)-7,14-dioxo-4-thia-8,15,19,24-tetraazaheptacosane-1,2-diyl dipalmitate] | activate hTLR7 | activate hTLR2
CCCCCCCCCCCCCCCC(=O)OCC(CSC[C@H](N)C(=O)NCCCC[C@H](NC(=O)CNC(=O)c1ccc(Cn2c(O)nc3c(N)nc(NCCCC)nc32)cc1)C(=O)NCCCNCCCCNCCCN)OC(=O)CCCCCCCCCCCCCCC (stereo partly drawn) [CL487, (6R,13S)-6,27-diamino-13-(2-(4-((6-amino-2-(butylamino)-8-hydroxy-9H-purin-9-yl)methyl)benzamido)acetamido)-7,14-dioxo-4-thia-8,15,19,24-tetraazaheptacosane-1,2-diyl dipalmitate] | activate hTLR7 | activate hTLR2
CCCCCCCCCCCCCCCC(=O)OCC(CSC[C@H](N)C(=O)N[C@@H](COC(=O)c1ccc(Cn2c(O)nc3c(N)nc(NCCCC)nc32)cc1)C(=O)NCCCNCCCCNCCCN)OC(=O)CCCCCCCCCCCCCCC (stereo partly drawn) [CL514, (6R,9S)-6,23-diamino-9-((4-((6-amino-2-(butylamino)-8-hydroxy-9H-purin-9-yl)methyl)benzoyloxy)methyl)-7,10-dioxo-4-thia-8,11,15,20-tetraazatricosane-1,2-diyl dipalmitate] | activate hTLR7 | activate hTLR2
CCCCCCCCCCCCCCCC(=O)OCC(CSC[C@H](N)C(=O)N[C@@H](CCC(=O)NCCCNCCCCNCCCN)C(=O)Nc1ccc(Cn2c(O)nc3c(N)nc(NCCCC)nc32)cc1)OC(=O)CCCCCCCCCCCCCCC (stereo partly drawn) [CL527, (6R,9S)-6,25-diamino-9-(4-((6-amino-2-(butylamino)-8-hydroxy-9H-purin-9-yl)methyl)phenylcarbamoyl)-7,12-dioxo-4-thia-8,13,17,22-tetraazapentacosane-1,2-diyl dipalmitate] | activate hTLR7 | activate hTLR2
CCCCCCCCCCCCCCCC(=O)OCC(CSC[C@H](N)C(=O)NCCCNCCCCNCCCNC(=O)CNC(=O)c1ccc(Cn2c(O)nc3c(N)nc(NCCCC)nc32)cc1)OC(=O)CCCCCCCCCCCCCCC (stereo partly drawn) [CL553, (20R)-20-amino-1-(4-((6-amino-2-(butylamino)-8-hydroxy-9H-purin-9-yl)methyl)phenyl)-1,4,19-trioxo-22-thia-2,5,9,14,18-pentaazapentacosane-24,25-diyl dipalmitate] | activate hTLR7 | activate hTLR2
